According to patent US8110596B2, “Triprenyl phenol compound, process for production of triprenyl phenol compound, and thrombolysis enhancer” (Tokyo University of Agriculture and Technology TLO Co., Ltd., priority 2006, dated 2012):

Biological target: T1, Glu-plg (Homo sapiens, UniProt P00747)
T1 construct: 0.1 mM VLK-pNA, 50 nM Glu-plg and 50 U/ml u-PA
Experiment: Plasminogen (plg) activation enhancing activity by urokinase catalysis, VLK-pNA chromogenic assay (Example 30, Table 24)
Format: biochemical
Details: for Maximum enhancing activity: Concentration by mole / Maximum enhancing activity: Concentration by weight: concentration at which enhancement of plasminogen activation reaches the maximum; for 10-Fold enhancing activity: Concentration by mole / 10-Fold enhancing activity: Concentration by weight: concentration giving 10-fold enhancement of plasminogen activation vs control without SMTP compound (=1); for 10-Fold enhancing activity: Concentration by mole / 10-Fold enhancing activity: Concentration by weight / plasminogen activation enhancing activity compared to orniplabin: 0.1 mM VLK-pNA, 50 nM Glu-plg, 50 U/ml u-PA, 37° C.; for Maximum enhancing activity: Multiplication factor: fold enhancement of plasminogen activation at maximum, control without SMTP compound = 1
Protocol: For the various triprenyl phenol compounds obtained as described above, the performance was evaluated with regard to the thrombolytic activity as the activity of promoting the plasminogen (plg) activation by urokinase catalysis.
The property of plasmin of cutting the peptide bond of a synthetic chromogenic substrate VLK-pNA (Val-Leu-Lys-p-nitroanilide) to generate p-nitroaniline (pNA), was used to measure the yellow coloration of pNA which is absorbed at 405 nm, and thereby the plasminogen activation enhancing activity of a sample is measured. An MTP-500 type microplate reader (Corona Electric Co., Ltd.) was employed as the measuring device, and measurement was performed with a 96-well round bottom microplate.
The measurement was performed under the conditions of kinetic measurement at 37° C. with dual wavelength of 405 nm (activity) to 595 nm (background), for 60 times in every minute.
The purified samples were each made into a DMSO solution or an aqueous solution of sodium salt. This solution was diluted with TBS/T (50 mM Tris-HCl, 100 mM NaCl and 0.01% Tween80, pH 7.4) to provide a sample for measurement.
Furthermore, as a blank, a reaction was performed using a reaction liquid not containing u-PA, and the value obtained therefrom was subtracted from the values obtained from the reactions described above. The absorbance was plotted against the square of time, and the slope was defined as the initial rate of reaction. A reaction solution not added with any triprenyl phenol compound was taken as the control and was compared with the samples, to determine the degree of activity of the respective compounds.
The term “concentration of 10-fold enhancing activity” indicates the concentration at which 10-fold enhancing activity is obtained in the case where the value obtained by using a reaction solution not containing any SMTP compound (control) is taken as 1. The term “maximum enhancing activity” indicates the concentration at which the enhancement of plasminogen activation by an SMTP compound reaches the maximum.

T1 sequence (P00747 20-810 limits assumed): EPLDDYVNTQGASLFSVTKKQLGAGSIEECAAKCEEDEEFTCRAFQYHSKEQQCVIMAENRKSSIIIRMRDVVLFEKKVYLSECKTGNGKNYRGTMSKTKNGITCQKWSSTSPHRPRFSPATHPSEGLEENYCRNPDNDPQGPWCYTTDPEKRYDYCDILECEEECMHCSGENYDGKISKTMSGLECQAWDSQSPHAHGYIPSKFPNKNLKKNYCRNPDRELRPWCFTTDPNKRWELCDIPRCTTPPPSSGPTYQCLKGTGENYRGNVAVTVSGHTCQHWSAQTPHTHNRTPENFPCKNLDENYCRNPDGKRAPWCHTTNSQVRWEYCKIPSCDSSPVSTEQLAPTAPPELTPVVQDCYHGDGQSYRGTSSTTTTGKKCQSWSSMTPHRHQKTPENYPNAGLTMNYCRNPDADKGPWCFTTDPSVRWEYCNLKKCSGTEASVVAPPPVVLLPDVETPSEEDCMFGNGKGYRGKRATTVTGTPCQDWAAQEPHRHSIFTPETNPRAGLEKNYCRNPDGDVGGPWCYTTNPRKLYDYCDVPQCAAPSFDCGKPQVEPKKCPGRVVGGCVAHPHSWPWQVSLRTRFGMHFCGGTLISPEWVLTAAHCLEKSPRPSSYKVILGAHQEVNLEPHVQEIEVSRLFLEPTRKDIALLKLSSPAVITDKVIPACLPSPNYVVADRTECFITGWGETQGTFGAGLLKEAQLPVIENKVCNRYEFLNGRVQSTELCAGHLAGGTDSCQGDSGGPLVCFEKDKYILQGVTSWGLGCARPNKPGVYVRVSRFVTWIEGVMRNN

SMILES | Maximum enhancing activity: Concentration by mole | Maximum enhancing activity: Concentration by weight | 10-Fold enhancing activity: Concentration by mole | 10-Fold enhancing activity: Concentration by weight | Maximum enhancing activity: Multiplication factor | plasminogen activation enhancing activity compared to orniplabin
CC(C)=CCC/C(C)=C/CC[C@]1(C)Oc2c(c(O)cc3c2CN([C@H](C(=O)O)c2cccc(O)c2)C3=O)C[C@@H]1O (racemic) [Compound I-25] | 402 µM | 215 µg/mL | 230 μM | 123 μg/ml | 29 | –
CC(C)=CCC/C(C)=C/CC[C@]1(C)Oc2c(c(O)cc3c2CN(c2ccc(C(=O)O)cc2)C3=O)C[C@@H]1O [Compound I-2] | 160 µM | 81 µg/mL | 83 μM | 42 μg/ml | 126 | equivalent or higher
CC(C)=CCC/C(C)=C/CC[C@]1(C)Oc2c(c(O)cc3c2CN(c2cccc(C(=O)O)c2)C3=O)C[C@@H]1O [Compound I-3] | 300 µM | 151 µg/mL | 202 μM | 102 μg/ml | 52 | –
CC(C)=CCC/C(C)=C/CC[C@]1(C)Oc2c(c(O)cc3c2CN(c2ccccc2C(=O)O)C3=O)C[C@@H]1O [Compound I-4] | 200 µM | 101 µg/mL | 133 μM | 67 μg/ml | 51 | –
CC(C)=CCC/C(C)=C/CC[C@]1(C)Oc2c(c(O)cc3c2CN(c2ccc(C(=O)O)c(O)c2)C3=O)C[C@@H]1O [Compound I-5] | 200 µM | 101 µg/mL | 100 μM | 52 μg/ml | 158 | equivalent or higher
CC(C)=CCC/C(C)=C/CC[C@]1(C)Oc2c(c(O)cc3c2CN(c2ccc(C(=O)O)cc2O)C3=O)C[C@@H]1O [Compound I-6] | 290 µM | 151 µg/mL | 131 μM | 68 μg/ml | 65 | –
CC(C)=CCC/C(C)=C/CC[C@]1(C)Oc2c(c(O)cc3c2CN(c2c(O)cccc2C(=O)O)C3=O)C[C@@H]1O [Compound I-7] | 290 µM | 151 µg/mL | 173 μM | 90 μg/ml | 37 | –
CC(C)=CCC/C(C)=C/CC[C@]1(C)Oc2c(c(O)cc3c2CN(c2cccc(C(=O)O)c2O)C3=O)C[C@@H]1O [Compound I-8] | 100 µM | 52 µg/mL | 71 μM | 37 μg/ml | 91 | equivalent or higher
CC(C)=CCC/C(C)=C/CC[C@]1(C)Oc2c(c(O)cc3c2CN(c2ccc(O)c(C(=O)O)c2)C3=O)C[C@@H]1O [Compound I-9] | 120 µM | 63 µg/mL | – | – | 8 | –
CC(C)=CCC/C(C)=C/CC[C@]1(C)Oc2c(c(O)cc3c2CN(c2cc(C(=O)O)ccc2O)C3=O)C[C@@H]1O [Compound I-10] | 290 µM | 151 µg/mL | 188 μM | 98 μg/ml | 43 | –
CC(C)=CCC/C(C)=C/CC[C@]1(C)Oc2c(c(O)cc3c2CN(c2ccc(O)cc2C(=O)O)C3=O)C[C@@H]1O [Compound I-11] | 200 µM | 101 µg/mL | 127 μM | 66 μg/ml | 65 | –
CC(C)=CCC/C(C)=C/CC[C@]1(C)Oc2c(c(O)cc3c2CN(c2ccc(S(=O)(=O)O)cc2)C3=O)C[C@@H]1O [Compound I-19] | 300 µM | 163 µg/mL | 137 μM | 74 μg/ml | 60 | –
CC(C)=CCC/C(C)=C/CC[C@]1(C)Oc2c(c(O)cc3c2CN([C@H](C(=O)O)c2ccccc2)C3=O)C[C@@H]1O [Compound I-20] | 289 µM | 150 µg/mL | 89 μM | 46 μg/ml | 402 | equivalent or higher
CC(C)=CCC/C(C)=C/CC[C@]1(C)Oc2c(c(O)cc3c2CN([C@@H](C(=O)O)c2ccccc2)C3=O)C[C@@H]1O [Compound I-21] | 289 µM | 150 µg/mL | 104 μM | 54 μg/ml | 44 | –
CC(C)=CCC/C(C)=C/CC[C@]1(C)Oc2c(c(O)cc3c2CN([C@H](C(=O)O)c2ccc(O)cc2)C3=O)C[C@@H]1O [Compound I-22] | 299 µM | 160 µg/mL | 211 μM | 113 μg/ml | 18 | –
CC(C)=CCC/C(C)=C/CC[C@]1(C)Oc2c(c(O)cc3c2CN([C@@H](C(=O)O)c2ccc(O)cc2)C3=O)C[C@@H]1O [Compound I-23] | 402 µM | 215 µg/mL | 331 μM | 177 μg/ml | 22 | –
CC(C)=CCC/C(C)=C/CC[C@]1(C)Oc2c(c(O)cc3c2CN([C@@H](Cc2ccc(O)cc2)C(=O)O)C3=O)C[C@H]1O [Compound I-26] | 200 µM | 110 µg/mL | 77 μM | 42 μg/ml | 76 | equivalent or higher
CC(C)=CCC/C(C)=C/CC[C@]1(C)Oc2c(c(O)cc3c2CN(CCC[C@@H](C(=O)O)N2Cc4c(cc(O)c5c4O[C@@](C)(CC/C=C(\C)CCC=C(C)C)[C@@H](O)C5)C2=O)C3=O)C[C@@H]1O [Orniplabin, reference compound] | 90 µM | 78 µg/mL | 65 μM | 56 μg/ml | 100 | –
